The test system of test [1] is myocardial ischemia-reperfusion injury. Briefly: Rat model of myocardial I/R injury (MI/AR ratio). The conditions noted are these: rat model of myocardial I/R injury; data not shown. Type of test: in vivo. An excerpt:
A rat model of myocardial I/R injury was used as an in vivo screen to determine if certain lipoic acid derivative compounds are cardio-protective (e.g., against mycoardial ischemia-reperfusion injury). This model is analogous to the ischemia-reperfusion injury observed in cardiac patients following coronary occlusions and cardiac surgery procedures, such as coronary artery bypass grafting (CABG) (Matsui, T., Tao, J., del Monte, F., Lee, K.-H. et al., Akt Activation Preserves Cardiac Function and Prevents Injury After Transient Cardiac Ischemia In vivo, Circulation 2001, 104:330).
The circumflex branch of the left coronary artery was ligated temporarily to induce regional ischemia in the left ventricular mass, followed by the injection of fluorescent microspheres to delineate the ischemic region. The animals were sacrificed about 24 hours after reperfusion and the hearts were excised, sectioned and stained with triphenyltetrazolium. The direct impact of the pharmacologic intervention was determined by measuring the myocardial infarct area (MI), the ischemic area at risk (AR) and the left ventricular area (LV). The reduction of MI over the AR (MI/AR ratio) was used as the primary measure of drug efficacy relative to vehicle controls.
Male Sprague-Dawley rats between 300 and 350 gm were used for these experiments. Anesthesia was induced with 3-4% isoflurane in an induction chamber. After induction, anesthesia was maintained at a surgical plane with 1.5-2.0% isoflurane, administered by a Rodent Ventilator through a 16-gauge angiocatheter introduced orally into the trachea. The ventilator was set at 2.5 cc at a rate of 60-65 breaths per minute to maintain ventilation during surgery. The core temperature of the animal was monitored and maintained at 37° C. using a rectal probe and a heating lamp attached to a temperature controller.
A left anterior thoracotomy was performed and the heart was exposed using a vertical pericardotomy. The circumflex branch of the left coronary artery (LCx) was ligated approximately 4 mm from the aorta using a cardiovascular 7.0 monofilament suture on an 11 mm needle to induce ischemia in the left ventricle.
Fluorescent microspheres (300 μL) were injected into the left ventricular cavity 10-20 minutes after the ligation to delineate the ischemic area. The suture was removed 30 minutes after ligation to reperfuse the ischemic area and the ischemic area was checked for reperfusion.
The chest was then closed in layers using absorbable suture (Dexon 5-0) for the muscle layers and monofilament Nylon 5-0 suture was used to close the cutaneous layer. The animals were allowed to recover, then were returned to the colony.
Twenty-four hours after reperfusion, anesthesia was induced using ketamine hydrochloride and the chest was opened. The animals were sacrificed with 15% potassium chloride aqueous solution (w/v) injected into the LV cavity to arrest the heart in diastole. The heart was excised distal to the aortic valve and washed with saline to remove the blood. Sagittal slices of the heart were obtained between the base of the ventricle and the apex. Five slices of heart tissue were obtained, each 2 mm thick. The slices were immersed in a 1% 2,3,5-triphenyl-2H-tetrazolium chloride (TTC) in saline solution and then stored in the dark for 30 minutes to stain.
Images of the slices were obtained under bright field (to observe the TTC staining) and under fluorescence (to observe the microspheres). The area at risk was determined by the absence of microspheres and the infarct area was determined by the absence of TTC staining.
In vivo experiments employing a rat model of myocardial I/R injury were performed as described in Example 8. Catheterized (jugular vein) rats were used for intravenous dose administration at time points prior to and/or including 0.25 h.

In a further test the test system is CHO M1-WT3 cells. Briefly: Cytosolic calcium overload assay, carbachol stimulated. The conditions noted are these: 200 nM carbachol, variant concentrations. The class given is cell-based, Chinese hamster. The source says:
Cytosolic calcium increases in the CHO M1-WT3 cells when stimulated with carbachol ([Molecular Devices, FlexStation Application Note 2, Comparison of FLIPR® and FLEXstation™ for Calcium Mobilization Assays]) and may be detected with a fluorescent dye that binds calcium. An increase in fluorescence following carbachol stimulation is interpreted as an increase in cytosolic calcium. Chinese hamster ovary (CHO) cells were allowed to adhere to the bottom of a 96-well culture plate. The fluorescent dye and a test sample were placed on the plate and allowed to be taken up by the cells. The fluorescence level was measured every two seconds using a plate reader (Flexstation II, Molecular Devices, Sunnyvale Calif.). The cells were stimulated with carbachol and fluorescent data reported as the peak increase in fluorescence above baseline following carbachol stimulation. Data were normalized to the peak carbachol response in the control sample.
CHO cells from the cell line CHO-M1-WT3 were grown in Hams F12 medium supplemented with 10% FBS and 5 μg/mL G418 to maintain expression of the M1 muscarinic receptor. Cells were seeded the night before the experiment at a concentration of 30,000 cells/well in a volume of 100 μL per well of black walled, clear bottomed, 96-well microplates (“assay plates”). Cells were incubated at 37° C. and 5% CO2 overnight. […] The cells were placed into the FlexStation system to monitor fluorescence before and after the addition of 50 μL of 1 μM carbachol for a final concentration of 200 nM. Fluorescence was measured for 17 seconds prior to carbachol addition and 43 seconds following carbachol addition. The Fluo-4 dye was excited at a wavelength of 485 nm and emission measured at 525 nm. The Calcium-3 dye was excited at a wavelength of 494 nm and emission measured at 525 nm. The calcium response was reported as the peak fluorescence minus the baseline fluorescence calculated as the average of the fluorescence prior to carbachol addition.

Test [2] in a line: Oxygen Radical Absorbance Capacity (ORAC) assay. An excerpt:
Peroxyl radicals are one species of reactive oxygen produced by cells during reperfusion. The presence of peroxyl radicals can be detected by fluorescein oxidation. In the presence of peroxyl radicals, fluorescein fluorescence will decay over time. In the presence of an oxygen radical scavenger, the rate of decay is diminished. The change in the rate of decay between control and in the presence of scavengers is used to measure the peroxyl radical scavenging ability of a test compound.
Each compound tested was diluted to a concentration ranging from 25 μM to 250 μM in 10 mM phosphate buffer (pH=7.4) containing 10 nM fluorescein. The buffer and compound were incubated at 37° C. for 10 minutes. After the incubation, flourescein fluorescence was measured using a plate reader (Molecular Devices Flexstation II, Ex=485, Em=520). Baseline fluorescence measurements were recorded for 15 minutes before 2,2′-azobis(2-methylpropionamidine) dihydrochloride (AAPH) was added. The fluorescence decay was recorded for 90 minutes. The fluorescence decay without compound was subtracted from the fluorescence decay with compound. The slope of the decay vs. concentration is reported as the absorbance capacity.

Test [3] deals with Akt. As to the kind of experiment: Immunohistochemistry assay for phosphorylated Akt in H9c2 cells. Type of test: cell-based, rat. The note with it: co-treatment with LY294002 (25 μM), 30 minutes prior to RLip-EA-OH. The protocol: The ability of RLip-EA-OH to increase phosphorylated Akt was assayed in H9c2 cells by immunocytochemistry followed by visualization using microscopy. H9c2 cells are a cell line derived from rat cardiac myocytes and can be manipulated to increase or decrease the level of phosphoryated Akt. Cells were inoculated onto culture plates and allowed to adhere to the bottom, treated, fixed, and permeabilized. Following permeabilization, cells were treated initially with specific phospho-Akt antibodies followed by fluorescent secondary antibodies to quantify the amount of bound primary antibody.
H9c2 cells were plated in 12 well cell culture treated plates at 70% confluence. Cells were incubated overnight to allow cell attachment. The media was changed to low serum (0.5%, fetal bovine serum [FBS]) and cells incubated for another 48 hours. Cells were treated for 3 hours with either vehicle, RLip-EA-OH (50 μM), or co-treatment with LY294002 (25 μM), fixed with 3.7% formaldehyde in phosphate buffered saline and permeabilized with 0.5% Triton X-100 in phosphate buffered saline. After permeabilization, the cells were treated with antibody specific for Akt phosphorylated at threonine-308, followed by treatment with a fluorescent labeled secondary antibody.

Test [4] relates to Akt. Briefly: Cytoblot assay for Akt activation in A549 cells. Type of test: cell-based, human. Here is the method: The ability of RLip-EA-OH to increase phosphorylated Akt was assayed using an in-cell western blot, or cytoblot. A549 cells (human non-small cell lung cancer cell line) were selected because these cells can be manipulated to increase or decrease the level of phosphoryated Akt. The cells were inoculated onto culture plates and allowed to adhere to the bottom, then treated, fixed, and permeabilized. Following permeabilization, the cells were treated with antibodies specific for either phospho-Akt or total Akt. The cells were then treated with fluorescent secondary antibodies to quantify the amount of bound primary antibody. Total Akt and phospho-Akt were simultaneously detected.
A549 cells were plated in 384 well black-wall, clear-bottom, cell culture-treated microtiter plates at 70% confluence. Cells were incubated overnight to allow cell attachment. The media was changed to low serum (0.1%, fetal bovine serum [FBS]) and the cells were incubated for another 24 hours. Cells were treated with test compounds, fixed and permeabilized for the Akt assay. The fixative was 3.7% formaldehyde in phosphate buffered saline. The permeabilization buffer was 0.5% Triton X-100 in phosphate buffered saline. After permeabilization of cells, the amounts of total Akt and phosphorylated Akt at either of the two phosphorylation sites (threonine-308 and serine-473) were determined at 7 test concentrations, each performed in quadruplicate. The phospho-Akt data were normalized to total Akt and background subtracted for analysis.
Following overnight serum starvation to reduce basal Akt phosphorylation, cells were stimulated with vehicle, RLip-EA-OH, or RLip-OH. Cells were treated for 45 minutes or 3 hours and studied for phosphorylation at serine-473 or threonine 308, respectively.

Another test deals with IGF1R (Homo sapiens, UniProt P08069). As to the kind of experiment: IGF1R tyrosine kinase activation assay (mobility shift). Type of test: biochemical. An excerpt:
(§1) IGF1R and Src tyrosine kinases have endogenous levels of activity in the presence of ATP and substrate. This activity was readily measured using a mobility shift assay using a Caliper LabChip® 3000 and a 12-sipper LabChip® to detect both phosphorylated and unphosphorylated substrate (Caliper Life Sciences, Discovery Alliances and Services Division). Enzyme, substrate and ATP concentrations were optimized for each assay. For the IGF1R assay, the final concentrations of the enzyme, peptide and ATP were 20 nM, 1.5 μM, and 1220 μM, respectively. For the Src assay, the final concentrations of the enzyme, peptide and ATP were 2.5 nM, 1.5 μM, and 17 μM, respectively.
(§2) RLip-EA-OH was evaluated at multiple concentrations for an effect on activation of IGF1 receptor kinase (IGF1R) and Src. The compounds tested activated IGF1R and Src with different selectivities.

The target in another test is T1, insulin receptor kinase (Homo sapiens, UniProt P06213).
T1 construct: insulin receptor kinase domain (Millipore catalog #14-466, 80 nM); purchased Millipore 14-466
T1 sequence (P06213 1023-1298 limits assumed): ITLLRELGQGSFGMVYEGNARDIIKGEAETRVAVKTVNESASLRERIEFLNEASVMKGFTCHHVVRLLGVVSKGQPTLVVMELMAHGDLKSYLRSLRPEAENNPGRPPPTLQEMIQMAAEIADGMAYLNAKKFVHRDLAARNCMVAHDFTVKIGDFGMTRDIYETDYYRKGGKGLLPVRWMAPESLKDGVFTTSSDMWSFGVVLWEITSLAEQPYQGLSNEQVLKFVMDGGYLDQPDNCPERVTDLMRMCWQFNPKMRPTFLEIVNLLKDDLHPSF
As to the kind of experiment: IRK activation assay (mobility shift kinase assay). The class given is biochemical. An excerpt:
Insulin receptor kinase activity was readily measured by a mobility shift assay using a Caliper LabChip® 3000 and a 12-sipper LabChip® to detect both phosphorylated and unphosphorylated substrate (Caliper Life Sciences, Discovery Alliances and Services Division, Hanover, Md.). The mobility-shift kinase assay uses a micro fluidic chip to measure the conversion of a fluorescent peptide substrate to a phosphorylated product. The reaction mixture from a microtiter plate well was introduced through a capillary sipper onto the chip and the nonphosphorylated substrate and phosphorylated product were separated by electrophoresis and detected via laser-induced fluorescence. […] The catalytic subunits of tyrosine kinases have endogenous levels of activity in the presence of ATP and substrate, thus the results are presented as a % of control.
Specifically, each test compound was diluted to 25 times its assay concentration with 100% DMSO and added to 12 μL of an assay buffer solution (100 mM HEPES, 10 mM MnCl2, 5 mM B-GP, and 0.002% Brij) containing dithiotheritol (DTT, 2 mM) and insulin receptor kinase domain (Millipore catalog #14-466, 80 nM) prior to pre-incubation at room temperature for 15 minutes. […] The samples were placed on the LabChip 3000 to measure the amount of parent substrate and phosphorylated product. […]

The test system of test [5] is myocardial ischemia-reperfusion injury. Briefly: Rat model of myocardial I/R injury (MI/AR ratio). Type of test: in vivo. The note with it: rat.
Another test addresses Src (Homo sapiens, UniProt P12931). As to the kind of experiment: Src tyrosine kinase activation assay (mobility shift). The class given is biochemical.
Excerpt: as §1, §2

Peptide text beside a SMILES is read from it.

Sequence of IGF1R (P08069 959-1367 limits assumed, species assumed): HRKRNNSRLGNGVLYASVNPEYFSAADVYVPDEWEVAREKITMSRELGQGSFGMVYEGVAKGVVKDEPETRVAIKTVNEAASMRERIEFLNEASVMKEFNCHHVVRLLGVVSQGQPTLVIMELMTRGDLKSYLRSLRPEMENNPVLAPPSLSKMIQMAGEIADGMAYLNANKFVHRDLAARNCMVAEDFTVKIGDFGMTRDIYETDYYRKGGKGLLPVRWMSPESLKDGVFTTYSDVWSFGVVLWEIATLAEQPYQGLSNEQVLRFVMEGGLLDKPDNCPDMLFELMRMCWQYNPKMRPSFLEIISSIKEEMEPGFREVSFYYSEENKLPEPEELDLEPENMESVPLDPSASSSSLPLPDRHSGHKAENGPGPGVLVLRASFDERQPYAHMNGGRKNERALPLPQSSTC
Sequence of Src (P12931 whole entry, species assumed): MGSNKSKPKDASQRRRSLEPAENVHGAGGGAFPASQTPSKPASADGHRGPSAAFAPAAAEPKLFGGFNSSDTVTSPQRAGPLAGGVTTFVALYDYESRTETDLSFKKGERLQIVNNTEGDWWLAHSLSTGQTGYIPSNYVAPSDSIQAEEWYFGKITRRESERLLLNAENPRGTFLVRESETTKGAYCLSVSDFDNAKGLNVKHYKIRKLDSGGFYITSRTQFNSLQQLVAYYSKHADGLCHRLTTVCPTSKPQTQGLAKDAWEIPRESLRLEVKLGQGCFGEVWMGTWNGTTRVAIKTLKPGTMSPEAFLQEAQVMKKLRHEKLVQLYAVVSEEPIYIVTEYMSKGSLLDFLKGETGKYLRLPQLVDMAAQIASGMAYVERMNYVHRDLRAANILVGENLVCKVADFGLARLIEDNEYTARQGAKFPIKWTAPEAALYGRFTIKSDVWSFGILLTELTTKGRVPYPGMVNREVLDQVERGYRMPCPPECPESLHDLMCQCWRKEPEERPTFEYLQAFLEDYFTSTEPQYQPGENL

On to `CC(=O)N[C@@H](CCC(=O)O)C(=O)N[C@@H](C)C(=O)O` [Ac-EA-OH, N-acetyl-L-glutamyl-L- alanine, reference compound] (Ac-Glu-Ala-OH), for which the “efficacy compared to vehicle” value in [1] is “statistically similar to vehicle”. Further, the “effect on carbachol stimulated flux in cytosolic calcium” value in the test with CHO M1-WT3 cells is listed as “minimal effect”. Further, the “peroxyl radical absorption capability” value in [2] (ORAC assay) is recorded as “no appreciable peroxyl radical absorption capability”. For the same compound, the “ORAC Value relative to RLip-OH” value in [2] (mean of 3-4 experiments) came to 8 ± 5.
Regarding `O=c1cc(N2CCOCC2)oc2c(-c3ccccc3)cccc12` [LY294002, 2-(4-morpholinyl)-8-phenyl-4H-1-benzopyran-4-one, reference compound], in the test with Akt [3], the “effect on fluorescence intensity from Akt phosphorylation induced by RLip-EA-OH” value is listed as “diminished the fluorescence intensity”. The “effect on RLip-EA-OH-increased phosphorylation of Akt” value with Akt [4] (cotreatment with 5 μM LY294002, 3 hours) is “completely inhibited”.
In the case of `O=C(O)CCCC[C@@H]1CCSS1` [RLip-OH, (R)-lipoic acid, reference compound], the “IGF1R % Increase in activity above vehicle control” value at IGF1R (300 μM) worked out at 37 ± 4%. In addition, the “effect on carbachol stimulated flux in cytosolic calcium” value in the test with CHO M1-WT3 cells is listed as “minimal effect”. For the same compound, the “IRK % Increase in activity above vehicle control” value at insulin receptor kinase (300 μM) stood at 48 ± 1%. The “Reduction of MI:AR Ratio Relative to Vehicle (%)” value in [5] (2 mg/kg IC, Table 7 meta analysis) is on record as 19 ± 7 %. For the same compound, the “Src % Increase in activity above vehicle control” value at Src (300 μM) is recorded as 15 ± 1%. The “increase in phosphorylated Akt at serine 473” value in the test with Akt [4] (45 minutes of treatment) came out at 2 fold. Also, the “amount of phosphorylated Akt relative to total Akt” value in the test on Akt [4] (variant concentrations) was “increased the amount of phosphorylated Akt relative to total Akt in a dose dependent manner”. The “ORAC Value relative to RLip-OH” value in [2] (mean of 3-4 experiments) is 100 ± 6.
Consider `C[C@H](NC(=O)[C@H](CCC(=O)O)NC(=O)CCCC[C@H]1CCSS1)C(=O)O` [SLip-EA-OH, N-(S)-lipoyl-L-glutamyl-L- alanine], for which the “IGF1R % activity above control (±SEM)” value on IGF1R (100 μM) is recorded as −4 ± 10%. For the same compound, on insulin receptor kinase (100 μM), the “AVG % activity above control (±SEM)” value was 4 ± 12%. For the same compound, the MI/AR in test [5] (1 mg/kg single bolus IC 15 minutes prior to ischemia) came out at 0.401; in test [5] (2 mg/kg single bolus IC 15 minutes prior to ischemia), 0.400. Also, the “Src % activity above control (±SEM)” value on Src (100 μM) was found to be 19 ± 1%. In test [2] (mean of 3-4 experiments), the “ORAC Value relative to RLip-EA-OH” value is 89 ± 4.

Source of the values: patent US8772250B2, “Compositions and methods for treating ischemia and ischemia-reperfusion injury” (Ischemix, LLC, priority 2010, dated 2014).
